6 compounds from US20210391038A1, “SPECIFICALLY-SHAPED CRYSTAL OF COMPOUND AND METHOD FOR PRODUCING SAME” (TOWA PHARMACEUTICAL CO., LTD., priority 2018, published 2021) can be followed below.

Each structure is given as a SMILES string. Counter-ions that a name gives are not always drawn.

Type in all cases: physicochemical
The nature of data set [1]: Particle size from SEM images (equivalent circle diameter, mean particle size, crystal size). The note with it: for equivalent circle diameter: SEM image, ImageJ, trihydrate. Here is the method:
“Equivalent circle diameter” in the present description is a diameter of a perfect circle corresponding to the area of individual particles in an image of particles taken by SEM, and is calculated from randomly selected 5 to 800 particles using image processing software ImageJ. The equivalent circle diameter of a spherulite obtained by the method of the present invention is preferably 25 μm or more, 30 μm or more, 35 μm or more, 40 μm or more, 45 μm or more, or 50 μm or more and 100 μm or less, 120 μm or less, 150 μm or less, 200 μm or less, 250 μm or less, 300 μm or less, 500 μm or less, or 1,000 μm or less. More preferably, the equivalent circle diameter is 25 to 500 μm or 30 to 300 μm.
The particle size distribution was measured in a dry manner using a spray particle size distribution analyzer AEROTRAC LDSA-SPR3500A manufactured by Microtrac Inc. The particle size distribution in Examples 2 and 7 was measured in a dry manner using a laser diffraction particle size distribution measurement MASTERSIZER 3000 manufactured by Malvern Panalytical Ltd. SEM images were measured using a scanning electron microscope JSM-IT100 manufactured by JEOL Ltd. Light microscope images were measured using an upright microscope BX53M manufactured by Olympus Corporation and a microscope digital camera DP74 manufactured by Olympus Corporation. Images for measuring the number of particles were obtained by a scanner GT-X830 manufactured by SEIKO EPSON CORPORATION. The powder X-ray diffraction (XRD) was measured using a desktop X-ray diffraction device MiniFlex300 manufactured by Rigaku Corporation. The specific surface area was measured by the BET fluid process (gas used: pure nitrogen) using a fully automatic specific surface area measuring device Macsorb HM-1208 manufactured by Mountech Co., Ltd. The moisture content was measured using a trace moisture measuring device AQ-2200 manufactured by […] SANGYO Co., Ltd. The dissolution profile was measured using μDISS Profiler manufactured by Pion Inc. Centrifugal classification was performed using a high-efficiency precision forced air classifier Lab Calssiel N-01 manufactured by SEISHIN […] Co., Ltd. Image analysis was performed using image processing software ImageJ developed by the National Institute of Health (NIH). The particle strength was measured using a particle hardness measuring device NEW GRANO manufactured by OKADA SEIKO CO., LTD. The true density was measured using a dry automatic densimeter AccuPyc II 1340-10CC manufactured by Shimadzu Corporation. The purity of a compound was measured by a high performance liquid chromatograph (LC-20A) manufactured by Shimadzu Corporation.
The spherulite of azithromycin monohydrate produced in Example 12 was cut, and the section was observed by SEM (FIG. 4). The crystal size at the outer edge was 5 to 10 μm, while the crystal size at the center was 0.2 to 1 μm.

A short description of data set [2]: Sphericity from SEM images (ImageJ). On the set-up: key: 1 = true sphere; closer to 1 = more spherical; mean of ≥5 particles. The note with it: SEM image analysis, mean of particles. The source says: In the present description, “spherulite” means a crystal aggregate (polycrystal) which has a radial or concentric thin layered structure and has a spherical outer shape. Whether the crystal obtained by the method of the present invention is a spherulite or not can be determined, for example, by observing the outer shape of the crystal using SEM. For example, it can be discriminated by cutting the crystal aggregate and observing the internal structure thereof using SEM. The sphericity of the spherulite obtained by the method of the present invention is usually 0.60 or more, preferably 0.70 or more, more preferably 0.80 or more, particularly preferably 0.90 or more, and most preferably 0.95 or more. The sphericity can be calculated by the following method.
When an image of particles taken by SEM is analyzed using image processing software ImageJ, a coordinate group representing the position of pixels forming the outline of a particle is obtained. The length of the coordinate group is defined as N, and one pixel coordinate of each outline is defined as p[i] (1≤i≤N). The angle between a straight line l(k) connecting two points p[k] and p[k+N/D] and a straight line m(k) connecting two points p[k+N/D] and p[k+2N/D] is defined as θ(k) (−180°<θ<180°) (1≤k≤N, 1≤D≤N). D corresponds to the number of partitions of the outline. When N/D is not a natural number, the value is defined as the quotient obtained by dividing N by D. By calculating this angle with k=1 to N, N pieces of θ value can be obtained.
When the particle is a true sphere, θ(k) is 360/D, and the closer the particle is to a true sphere, the closer θ(k) is to this value. The error between θ(k) and the true value 360/D is evaluated by the root-mean-square error (RMSE) of the following formula:
Using the RMSE value of when D is 10 (θ(k)=36°), the sphericity is defined by the following formula: […]
The sphericity is 1 in a true sphere, and the closer the particle is to a true sphere, the closer the sphericity is to 1. Meanwhile, the sphericity of an ellipse whose long axis is infinitely long is zero. The sphericity is measured for five or more particles to calculate the mean. This mean is defined as the sphericity of each sample (see FIGS. 42 and 43).

Data set [3] is described as follows: Measurement of critical degree of supersaturation of spherulite. The note with it: entry 19; solvent 1 EtOH, solvent 2 H2O, solvent 2/solvent 1 ratio 1; crystallization 35 °C. The source says: “Supersaturated solution” in the present description means a solution in a state of containing a solute exceeding the solubility. As the degree of supersaturation, “degree of supersaturation” can be used. Regarding the degree of supersaturation, when the concentration (mass concentration (g/g)) of a compound dissolved in a supersaturated solution is defined as C and the solubility of the compound is defined as Cs, the degree of supersaturation S can be represented by the following formula: […]
“Critical degree of supersaturation” in the present description means the lowest degree of supersaturation required to obtain a specifically-shaped crystal. […] The value of a critical degree of supersaturation varies depending on the shape of a crystal. For example, all of values of a critical degree of supersaturation required to obtain a plate crystal, a critical degree of supersaturation required to obtain a needle crystal, and a critical degree of supersaturation required to obtain a spherulite are different. The critical degree of supersaturation required to obtain a spherulite is higher than the critical degree of supersaturation required to obtain a plate crystal or a needle crystal.
The actual measured value of the critical degree of supersaturation (S*) can be measured as follows:
(1) 100 particles are observed by SEM. (2) 5 to 10 particles whose shape is close to a desired specific shape are selected, and the shape is evaluated. In particular, when the desired specific shape is a sphere, the sphericity is evaluated. (3) Based on the evaluation index of the shape, whether the selected particles have the desired specific shape or not is determined. In particular, when the desired specific shape is a sphere, the case where the sphericity is 0.60 or more is determined as a spherulite. (4) The above-mentioned operation is performed for each sample having a different degree of supersaturation during crystallization, and the minimum value of a degree of supersaturation having the specifically-shaped particles is determined as the critical degree of supersaturation. The difference between the maximum value of a degree of supersaturation not having the specifically-shaped particles and the critical degree of supersaturation should be 20% or less.
The critical degree of supersaturation of a spherulite of ketotifen fumarate was determined as follows. To 2.0 g of ketotifen fumarate, 10 mL (5 v/w) of methanol was added, followed by reflux to completely dissolve. This solution was added dropwise to 50 mL of isopropanol at 20° C. to prepare a supersaturated solution of ketotifen fumarate. The degree of supersaturation of the supersaturated solution at the end of dropwise addition was 9.0. The supersaturated solution was crystallized. The crystal was collected by filtration, followed by drying under reduced pressure at 40° C., thus obtaining a crystal of ketotifen fumarate.
Similarly, when a substrate and a solvent different from those mentioned above are used, a plurality of samples having a different degree of supersaturation are prepared and crystallized, and then the critical degree of supersaturation of the spherulite was measured.

Data set [4] is described as follows: Particle density, true density and particle packing rate. The procedure:
“Particle density” in the present description is mass per unit volume when the volume of the substance itself as well as the volume of the open void and the closed void are included as the volume of polycrystalline particles. For example, when the polycrystalline particles are spherical particles, the particle density is calculated by the following formula using the mean mass of the polycrystalline particles and the mean volume of the polycrystalline particles:
Here, the mean mass of polycrystalline particles is calculated by measuring the number of polycrystalline particles contained in 1.0 mg or more, preferably 5.0 mg or more, and more preferably 10.0 mg or more of a sample by a scanner, etc. The mean volume of crystal particles is obtained by averaging the volume calculated by photographing 500 or more, preferably 1,000 or more, and more preferably 5,000 or more crystal particles by a light microscope, etc., using an equivalent circle diameter obtained from the projected area of polycrystalline particles, and assuming that the polycrystalline particles are true spheres. At this time, it is desirable that the distribution of the equivalent circle diameter is unimodal and the sharpness value is less than 1.5.
“Particle packing rate” of a polycrystal in the present description is a value calculated by the following formula:
Particle packing rate (%)=(particle density)/(true density of compound)×100 [Equation 8]
Here, “true density of compound” is a density of a substance itself not including a void. If no void exists at all inside or on the surface of a particle, the particle packing rate is 100%. The true density of a compound can be obtained by dry density measurement by the constant volume expansion method. Examples of the measuring device include a dry automatic densimeter AccuPyc II 1340-10CC manufactured by Shimadzu Corporation.
The particle size distribution was measured in a dry manner using a spray particle size distribution analyzer AEROTRAC LDSA-SPR3500A manufactured by Microtrac Inc. The particle size distribution in Examples 2 and 7 was measured in a dry manner using a laser diffraction particle size distribution measurement MASTERSIZER 3000 manufactured by Malvern Panalytical Ltd. SEM images were measured using a scanning electron microscope JSM-IT100 manufactured by JEOL Ltd. Light microscope images were measured using an upright microscope BX53M manufactured by Olympus Corporation and a microscope digital camera DP74 manufactured by Olympus Corporation. Images for measuring the number of particles were obtained by a scanner GT-X830 manufactured by SEIKO EPSON CORPORATION. The powder X-ray diffraction (XRD) was measured using a desktop X-ray diffraction device MiniFlex300 manufactured by Rigaku Corporation. The specific surface area was measured by the BET fluid process (gas used: pure nitrogen) using a fully automatic specific surface area measuring device Macsorb HM-1208 manufactured by Mountech Co., Ltd. The moisture content was measured using a trace moisture measuring device AQ-2200 manufactured by […] SANGYO Co., Ltd. The dissolution profile was measured using μDISS Profiler manufactured by Pion Inc. Centrifugal classification was performed using a high-efficiency precision forced air classifier Lab Calssiel N-01 manufactured by SEISHIN […] Co., Ltd. Image analysis was performed using image processing software ImageJ developed by the National Institute of Health (NIH). The particle strength was measured using a particle hardness measuring device NEW GRANO manufactured by OKADA SEIKO CO., LTD. The true density was measured using a dry automatic densimeter AccuPyc II 1340-10CC manufactured by Shimadzu Corporation. The purity of a compound was measured by a high performance liquid chromatograph (LC-20A) manufactured by Shimadzu Corporation. […]

On to `COc1ccc2[n-]c([S@@+]([O-])Cc3ncc(C)c(OC)c3C)nc2c1.COc1ccc2[n-]c([S@@+]([O-])Cc3ncc(C)c(OC)c3C)nc2c1.O.O.O.[Mg+2]` [Example 4, esomeprazole magnesium trihydrate], for which the equivalent circle diameter in data set [1] was determined as 183±8 μm. Moreover, the “sphericity of the spherulite” value in data set [2] (trihydrate) came to 0.93±0.02.

For `CN(C)CC/C=C1/c2ccccc2COc2ccc(CC(=O)O)cc21` [Example 31, olopatadine], the mean particle size in data set [1] came out at 167 μm. Moreover, the “sphericity of the spherulite” value in data set [2] is on record as 0.96±0.02.

`COc1cccc(C2(O)CCCCC2CN(C)C)c1` (stereo not drawn) [Example 29, tramadol hydrochloride]: the mean particle size in data set [1] turned out to be 319 μm. Moreover, the “sphericity of the spherulite” value in data set [2] is 0.90±0.08.

With `COc1ccc2[n-]c([S@@+]([O-])Cc3ncc(C)c(OC)c3C)nc2c1.COc1ccc2[n-]c([S@@+]([O-])Cc3ncc(C)c(OC)c3C)nc2c1.O.O.O.[Mg+2]` [Example 3, esomeprazole magnesium trihydrate], the equivalent circle diameter in data set [1] is recorded as 58±7 μm. The “sphericity of the spherulite” value in data set [2] (trihydrate) was determined as 0.97±0.01.

For the compound `Cc1ccccc1C(=O)Nc1ccc(C(=O)N2CCCC(O)c3cc(Cl)ccc32)c(C)c1` (stereo not drawn) [Example 28, tolvaptan], the mean particle size in data set [1] is recorded as 145 μm. Besides, the “sphericity of the spherulite” value in data set [2] is 0.94±0.02.

Regarding `COc1ccc2[n-]c([S@@+]([O-])Cc3ncc(C)c(OC)c3C)nc2c1.COc1ccc2[n-]c([S@@+]([O-])Cc3ncc(C)c(OC)c3C)nc2c1.O.O.O.[Mg+2]` [Esomeprazole magnesium trihydrate], the “Critical degree of supersaturation S Experimental value” in data set [3] is given as 1.6. The true density in data set [4] is 1.37 g/mL.
